Assay results published in patent US20090312243A1, “TREATMENT OF INFLAMMATORY BOWEL DISEASE (IBD) WITH ANTI-ANGIOGENIC COMPOUNDS” (priority 2005, published 2009).
Entries after “also recorded” stand apart in the source; their conditions may differ.

What was measured:
[1] = tested on: C57BL/10 IL-10-deficient mice; assay: IL-10-deficient mouse colitis model, disease activity index (DAI); assay type: in vivo; settings: for effect on established colitis (disease activity index): n=12 per group
Experimental: The DAI was calculated by scoring 1 point for the appearance of each of the following: ruffled fur, occult fecal blood as determined on a Hemoccult Sensa® card (Smith Kline Diagnostics, San Jose, Calif.), rectal prolapse <1 mm, and soft stool. The mice were scored an additional point for diarrhea or severe rectal prolapse >1 mm. The mean with standard error bars of the DAI are plotted for pretreatment and then at the end of each week of treatment (n=12 per group).
The preferred, and widely used, model for testing is the IL-10-deficient (KO) mouse (on a C57BL/10 strain background). As described in the Examples, colonies of C57BL/10 IL-10 KO mice are bred and used. These mice consistently develop colitis at 10-12 weeks of age when transported from the ultra-barrier facility to conventional housing. These mice are used to test the effect of a candidate anti-angiogenic agent on pathogenesis and treatment of established disease.
Colonies of C57BL/10 IL-10-deficient mice were routinely bred at the Case Western Reserve University Animal Research Center for studies of early and late colitis. These mice consistently develop colitis at 10-12 weeks of age when transported from the ultra-barrier facility to conventional housing. These mice were used to test the effect of ATN 161 (Ac-PHSCN—NH2) on both the development and treatment of established disease.
ATN-161 had no effect on the development of colitis in this model when treatment was initiated at the time that the mice were moved to conventional housing. […] A scrambled peptide version of ATN-161 (ATN-163; Ac-HSPNC—NH2) was used as a control and had no effect on established colitis in this model. ATN-163 and vehicle controls were indistinguishable in these studies (data not shown).

IL-6 [2] = assay: IL-6 in supernatants of cultured colon fragments from treated mice (ELISA); assay type: in vivo, mouse; settings: 48 hours culture; versus ATN-163 treated controls
Experimental: (§1) FIGS. 3A and 3B are graphs showing that colon fragments from ATN-161 treated mice expressed lower levels of IL-12 and IL-6. Fragments of colon from mice treated with ATN-161 or ATN-163 were cultured in RPMI media +2% fetal bovine serum and 2.5% PSF (antibiotic-antimycotic). After 48 hours, supernatants were harvested and kept frozen at −80 C. FIG. 3A: IL-12(p40) was analyzed using an ELISA in which plates had been coated with the monoclonal antibody C15.6. FIG. 3B: IL-6 was analyzed using a commercially available ELISA kit specific for mouse IL-6 (R&D Systems, Minneapolis, Minn.).
(§2) Biopsies were also cultured in vitro and the supernatants analyzed for IL-6 and IL-12 expression as previously described (Spencer D M et al., 2002, Gastroenterology 122:94-105). IL-6 and IL-12 are inflammatory cytokines that have been correlated with the pathogenesis of colitis (Mahida Y R, 2000, Inflamm Bowel Dis 6:21-33).

[3] = tested on: C57BL/10 IL-10-deficient mice; assay: Histologic grading for colitis of colon at Week 6; assay type: in vivo, mouse; settings: end of Week 6; ATN-161 versus ATN-163 treated group
Experimental: FIG. 2 is a graph summarizing the histologic grading for colitis at Week 6. Grading of intestinal inflammation was determined in a blinded fashion by three readers: no inflammation (0); modest numbers of infiltrating cells in the lamina propria (1); infiltration of mononuclear cells leading to separation of crypts and mild mucosal hyperplasia (2); massive infiltration with inflammatory cells accompanied by disrupted mucosal architecture, loss of goblet cells, and marked mucosal hyperplasia (3); all of the above plus crypt abscesses or ulceration (4).
Animals were euthanized at the end of Week 6 and the colon removed for histologic analysis.

[4] = tested on: C57BL/10 IL-10-deficient mice; assay: Microvessel density in colon sections by anti-CD31 immunostaining; assay type: in vivo, mouse; settings: zinc fixed colon sections
Experimental: FIG. 4 is a graph showing an analysis of microvessel density using anti-CD31 immunostaining. Immunostaining was performed using the mouse CD31 specific mAb MEC 13.3 (Becton-Dickinson, San Diego, Calif.). Morphometric analysis was carried out using an international consensus for the quantification of angiogenesis (Vermeulen P B et al., Eur J Cancer 32A:2474-84; Eur J Cancer 38:1564-15). In particular stained colonic sections were scanned at low power (40×) to detect the most vascularized area, after which at least 5 microphotographs at 200× magnification were taken in the mucosa and in the submucosa. The number of vessels/field (mean vascular density) was performed using Image Pro Plus Software (Media Cybernetics, Silver Spring, Md.).
Microvessel density as a measure of angiogenesis was determined in zinc fixed colon sections.

[5] = tested on: human colon cancer cells (HT29); settings: HT29 do not express integrin α5β1; cited from earlier work
cell adhesion = settings: cited from earlier work
IL-12(p40) = assay: IL-12 in supernatants of cultured colon fragments from treated mice (ELISA); assay type: in vivo, mouse; settings: 48 hours culture; versus ATN-163 treated controls
Experimental: as §1, §2

tumor angiogenesis = settings: cited from earlier work
IL-12 = IL-12 production in vitro by LPMC extracts and splenocytes; assay type: cell-based; settings: lamina propria mononuclear cell (LPMC) extracts and splenocytes
Experimental: (§3) The effect of ATN-161 on IL-6 and IL-12 expression was also evaluated in vitro using lamina propria mononuclear cell (LPMC) extracts and splenocytes.

IL-6 [6] = assay: IL-6 production in vitro by LPMC extracts and splenocytes; assay type: cell-based; settings: lamina propria mononuclear cell (LPMC) extracts and splenocytes
Experimental: as §3

Substance | effect on established colitis (disease activity index) ([1]; mice with established disease) | IL-6 level in colon fragment organ culture (IL-6 [2]) | histologic score [3] | reduction of microvessels versus ATN-163 treated controls [4] | in vivo growth of xenografted HT29 cells [5] | effect on cell adhesion (cell adhesion) | IL-12 level in colon fragment organ culture (IL-12(p40)) | effect on efficacy of 5-fluorouracil (tumor angiogenesis; combination with 5-fluorouracil) | effect on tumor angiogenesis (tumor angiogenesis; in vivo) | treatment time after which the reduction of colitis was observed ([1]; mice with established disease) | effect on the development of colitis ([1]; treatment initiated at the time the mice were moved to conventional housing) | effect on IL-12 production (IL-12) | effect on IL-6 production (IL-6 [6])
Ac-HSPNC—NH2 (Ac-HSPNC-NH2) [ATN-163, reference compound] | no effect |  |  |  |  |  |  |  |  |  |  |  | 
Ac-PHSCN—NH2 (Ac-PHSCN-NH2) [ATN-161] | consistently reduced colitis; also recorded: reduces established colitis | significantly lower levels | significantly lower | approximately 40% | significantly reduced | does not affect cell adhesion | significantly lower levels | enhance the efficacy | inhibited tumor angiogenesis | approximately four | no effect | no effect | no effect
